{
  "source": "ChEMBL document CHEMBL2021798",
  "about": "“Discovery of new quinoline ether inhibitors with high affinity and selectivity for PDGFR tyrosine kinases” (Bioorg Med Chem Lett, 2012)",
  "key": {"[1]": {"assay": "Clearance in dog at 20 mg/kg, po", "assay_type": "ADME, organism-based, Canis lupus familiaris", "design": "dose 20 mg/kg, route oral", "settings": "in vivo"}, "Canis familiaris [2]": {"system": "Canis familiaris", "assay": "Volume of distribution at steady state in dog at 20 mg/kg, po", "assay_type": "ADME, organism-based, Canis lupus familiaris", "design": "dose 20 mg/kg, route oral", "settings": "in vivo"}, "[3]": {"assay": "Terminal half life in dog at 20 mg/kg, iv", "assay_type": "ADME, organism-based, Canis lupus familiaris", "design": "dose 20 mg/kg, route intravenous", "settings": "in vivo, read-out: beta t1/2 (converted)"}, "Rattus norvegicus [4]": {"system": "Rattus norvegicus", "assay": "Volume of distribution at steady state in rat at 20 mg/kg, po", "assay_type": "ADME, organism-based", "design": "dose 20 mg/kg, route oral", "settings": "in vivo"}, "[5]": {"assay": "Terminal half life in rat at 20 mg/kg, iv", "assay_type": "ADME, organism-based", "design": "dose 20 mg/kg, route intravenous", "settings": "in vivo, read-out: beta t1/2 (converted)"}, "Rattus norvegicus [6]": {"system": "Rattus norvegicus", "assay": "Volume of distribution at steady state in rat at 3 mg/kg, po", "assay_type": "ADME, organism-based", "design": "dose 3 mg/kg, route oral", "settings": "in vivo"}, "Canis familiaris [7]": {"system": "Canis familiaris", "assay": "Volume of distribution at steady state in dog at 3 mg/kg, po", "assay_type": "ADME, organism-based, Canis lupus familiaris", "design": "dose 3 mg/kg, route oral", "settings": "in vivo"}, "[8]": {"assay": "Oral bioavailability in rat at 3 mg/kg", "assay_type": "ADME, organism-based", "settings": "in vivo"}, "[9]": {"assay": "Clearance in dog at 3 mg/kg, po", "assay_type": "ADME, organism-based, Canis lupus familiaris", "design": "dose 3 mg/kg, route oral", "settings": "in vivo"}, "[10]": {"assay": "Terminal half life in dog at 3 mg/kg, iv", "assay_type": "ADME, organism-based, Canis lupus familiaris", "design": "dose 3 mg/kg, route intravenous", "settings": "in vivo, read-out: beta t1/2 (converted)"}, "[11]": {"assay": "Clearance in rat at 3 mg/kg, po", "assay_type": "ADME, organism-based", "design": "dose 3 mg/kg, route oral", "settings": "in vivo"}, "[12]": {"assay": "Oral bioavailability in dog at 3 mg/kg", "assay_type": "ADME, organism-based, Canis lupus familiaris", "settings": "in vivo"}, "[13]": {"assay": "Dissociation constant, pKa of the compound", "assay_type": "physicochemical"}, "[14]": {"assay": "Terminal half life in rat at 3 mg/kg, iv", "assay_type": "ADME, organism-based", "design": "dose 3 mg/kg, route intravenous", "settings": "in vivo, read-out: beta t1/2 (converted)"}, "[15]": {"assay": "Lipophilicity, log D of the compound", "assay_type": "physicochemical", "settings": "octanol/water"}, "[16]": {"assay": "Clearance in rat at 20 mg/kg, po", "assay_type": "ADME, organism-based", "design": "dose 20 mg/kg, route oral", "settings": "in vivo"}, "[17]": {"assay": "Oral bioavailability in dog at 20 mg/kg", "assay_type": "ADME, organism-based, Canis lupus familiaris", "settings": "in vivo"}, "[18]": {"assay": "Oral bioavailability in rat at 20 mg/kg", "assay_type": "ADME, organism-based", "settings": "in vivo"}},
  "data": [
    {"smiles": "COc1ccc2c(Oc3ccc(CC(=O)Nc4cn(C)nc4C)c(OC)c3)ccnc2c1", "values": [
      {"measurement": "CL/F", "setting": "[1]", "value": 2.4, "unit": "mL/min/kg"},
      {"measurement": "Vdss", "setting": "Canis familiaris [2]", "value": 1.4, "unit": "L/kg"},
      {"measurement": "half-life", "setting": "[3]", "value": 8.6, "unit": "h"},
      {"measurement": "Vdss", "setting": "Rattus norvegicus [4]", "value": 0.7, "unit": "L/kg"},
      {"measurement": "half-life", "setting": "[5]", "value": 3.7, "unit": "h"}
    ]},
    {"smiles": "CCOc1cc2nccc(Oc3cnc(CC(=O)Nc4n[nH]c(CC)c4C)c(OC)c3)c2cc1OC", "values": [
      {"measurement": "Vdss", "setting": "Rattus norvegicus [6]", "value": 0.7, "unit": "L/kg"},
      {"measurement": "Vdss", "setting": "Canis familiaris [7]", "value": 2, "unit": "L/kg"},
      {"measurement": "bioavailability", "setting": "[8]", "value": 43, "unit": "%"},
      {"measurement": "CL/F", "setting": "[9]", "value": 11.5, "unit": "mL/min/kg"},
      {"measurement": "half-life", "setting": "[10]", "value": 3.4, "unit": "h"},
      {"measurement": "CL/F", "setting": "[11]", "value": 9, "unit": "mL/min/kg"},
      {"measurement": "bioavailability", "setting": "[12]", "value": 100, "unit": "%"},
      {"measurement": "pKa", "setting": "[13]", "value": 6},
      {"measurement": "half-life", "setting": "[14]", "value": 1.6, "unit": "h"},
      {"measurement": "logD", "setting": "[15]", "value": 3.3}
    ]},
    {"smiles": "COc1ccc2c(Oc3ccc(CC(=O)Nc4cn(C)nc4C)c(OC)c3)ccnc2c1.O=S(=O)(O)O", "values": [
      {"measurement": "CL/F", "setting": "[16]", "value": 5.7, "unit": "mL/min/kg"},
      {"measurement": "bioavailability", "setting": "[17]", "value": 59, "unit": "%"},
      {"measurement": "pKa", "setting": "[13]", "value": 6.3},
      {"measurement": "bioavailability", "setting": "[18]", "value": 78, "unit": "%"},
      {"measurement": "CL/F", "setting": "[1]", "value": 2.5, "unit": "mL/min/kg"},
      {"measurement": "Vdss", "setting": "Canis familiaris [2]", "value": 1.8, "unit": "L/kg"},
      {"measurement": "half-life", "setting": "[3]", "value": 10.6, "unit": "h"},
      {"measurement": "Vdss", "setting": "Rattus norvegicus [4]", "value": 0.7, "unit": "L/kg"},
      {"measurement": "logD", "setting": "[15]", "value": 3.5},
      {"measurement": "half-life", "setting": "[5]", "value": 3.7, "unit": "h"}
    ]}
  ]
}
